Experimental data as given in patent publication US20040076968A1, “Method for detecting pre-disposition to hepatotoxicity” (priority 2000, published 2004).

Test system: UGT1A6 gene
Test: Association of UGT1A6 polymorphisms with liver function abnormality in tolcapone-treated patients (case-control genotyping)
Format: in vivo, human
Experimental: Disease severity had already been controlled for by the original study inclusion criteria.
In the KTC format, the generation of double-stranded amplification product is monitored using a DNA intercalating dye and a thermal cycler which has a fluorescence-detecting CCD camera attached (PE-Bipsystems GeneAmp 5700 Sequence Detection System). Fluorescence in each well of the PCR amplification plate is measured at each cycle of annealing and denaturation. The cycle at which the relative fluorescence reached a threshold of 0.5 using the SDS sofiware from PE-Biosystems was defined as the Ct.
The amplification reactions were designed to be allele-specific, so that the amplification reaction was positive if the polymorphism was present and the amplification reaction was negative if the polymorphism was absent. For each bi-allelic polymorphism, one well of the amplification plate was set up to be specific for allele 1 and a second well was set up to be specific for allele 2. For each polymorphism to be detected, three primers were designed—two allele-specific primers and one common primer (Table 3). Reactions for allele 1 contained allele 1-specific primer and the common primer and reactions for allele 2 contained allele 2-specific primer and the common primer.
The Ct of each amplification reaction was determined and the difference between the Ct for allele 1 and allele 2 (delta Ct) was, used as the assay result. Samples with delta Cts between −3.0 and 3.0 were considered heterozygous (A1/A2). Samples with delta Cts below −3.0 were considered homozygous for A1 (A1/A1); samples with delta Cts above 3.0 were considered homozygous for A2 (A2/A2).
For all other single nucleotide polymorphisms (SNPs) discovery and genotyping was done by double-stranded DNA sequencing using an ABI capillary sequencer and Big Dye chemistry (ABI). The primers used to amplify all exons are shown below and were also used as sequencing primers. Publicly available genomic sequences were used as references for primer design. All polymorphisms were targeted with these pairs-of-primer sets:
The patient samples were divided into two groups.
For each genotype, the following analyses were performed:
a) Analysis of the entire genotype: patients were classified according to the following three categories: homozygous 1/1 (two copies of allele 1 and no copies of allele 2), heterozygous 1/2 (one copy of allele 1 and one copy of allele 2) or homozygous 2/2 (no copies of allele 1 and two copies of allele 2). Analysis was conducted to assess whether there were differences in the proportion of case patients in each of these groups, compared with the proportion of control patients. The Cochran-Maentel-Hanszel (CMH) test was applied to the data presented in a 2-by-3 table (the two columns indicating presence or absence of liver function abnormality and the three rows indicating the three categories of the genotype).
b) Analysis of alleles: the presence of allele 1 or 2 in case patients was compared to the presence of the respective allele in the control patients.
c) Analysis of allele counts: this analysis was conducted to compare the distribution of the alleles in patients with liver function abnormality to that of patients without abnormality. The total number of copies of allele 1 among patients with liver function abnormality was compared with the total number of copies of allele 2 among these case patients.

n (%) of patients (UGT1A6_232 Ser7Ala, Allele G Absent, Liver Function Abnormality Absent): 112 (42.1%) | n (%) of patients (UGT1A6_232 Ser7Ala, Allele G Absent, Liver Function Abnormality Present): 40 (30.5%) | n (%) of patients (UGT1A6_232 Ser7Ala, Allele G Present, Liver Function Abnormality Absent): 154 (57.9%) | n (%) of patients (UGT1A6_232 Ser7Ala, Allele G Present, Liver Function Abnormality Present): 91 (69.5%) | n (%) of patients (UGT1A6_232 Ser7Ala, Allele T Absent, Liver Function Abnormality Absent): 31 (11.7%) | n (%) of patients (UGT1A6_232 Ser7Ala, Allele T Absent, Liver Function Abnormality Present): 28 (21.4%) | n (%) of patients (UGT1A6_232 Ser7Ala, Allele T Present, Liver Function Abnormality Absent): 235 (88.3%) | n (%) of patients (UGT1A6_232 Ser7Ala, Allele T Present, Liver Function Abnormality Present): 103 (78.6%) | n (%) of allele copies (UGT1A6_232 Ser7Ala, Count Allele G, Liver Function Abnormality Absent): 185 (34.8%) | n (%) of allele copies (UGT1A6_232 Ser7Ala, Count Allele G, Liver Function Abnormality Present): 119 (45.4%) | n (%) of allele copies (UGT1A6_232 Ser7Ala, Count Allele T, Liver Function Abnormality Absent): 347 (65.2%) | n (%) of allele copies (UGT1A6_232 Ser7Ala, Count Allele T, Liver Function Abnormality Present): 143 (54.6%) | n (%) of patients (UGT1A6_232 Ser7Ala, Genotype Heterozygous T/G, Liver Function Abnormality Absent): 123 (46.2%) | n (%) of patients (UGT1A6_232 Ser7Ala, Genotype Heterozygous T/G, Liver Function Abnormality Present): 63 (48.1%) | n (%) of patients (UGT1A6_232 Ser7Ala, Genotype Homozygous G/G, Liver Function Abnormality Absent): 31 (11.7%) | n (%) of patients (UGT1A6_232 Ser7Ala, Genotype Homozygous G/G, Liver Function Abnormality Present): 28 (21.4%) | n (%) of patients (UGT1A6_232 Ser7Ala, Genotype Homozygous T/T, Liver Function Abnormality Absent): 112 (42.1%) | n (%) of patients (UGT1A6_232 Ser7Ala, Genotype Homozygous T/T, Liver Function Abnormality Present): 40 (30.5%) | n (%) of patients (UGT1A6_528 A/G, Allele A Absent, Liver Function Abnormality Absent): 22 (8.3%) | n (%) of patients (UGT1A6_528 A/G, Allele A Absent, Liver Function Abnormality Present): 26 (20.0%) | n (%) of patients (UGT1A6_528 A/G, Allele A Present, Liver Function Abnormality Absent): 243 (91.7%) | n (%) of patients (UGT1A6_528 A/G, Allele A Present, Liver Function Abnormality Present): 104 (80.0%) | n (%) of patients (UGT1A6_528 A/G, Allele G Absent, Liver Function Abnormality Absent): 129 (48.7%) | n (%) of patients (UGT1A6_528 A/G, Allele G Absent, Liver Function Abnormality Present): 44 (33.8%) | n (%) of patients (UGT1A6_528 A/G, Allele G Present, Liver Function Abnormality Absent): 136 (51.3%) | n (%) of patients (UGT1A6_528 A/G, Allele G Present, Liver Function Abnormality Present): 86 (66.2%) | n (%) of allele copies (UGT1A6_528 A/G, Count Allele A, Liver Function Abnormality Absent): 372 (70.2%) | n (%) of allele copies (UGT1A6_528 A/G, Count Allele A, Liver Function Abnormality Present): 148 (56.9%) | n (%) of allele copies (UGT1A6_528 A/G, Count Allele G, Liver Function Abnormality Absent): 158 (29.8%) | n (%) of allele copies (UGT1A6_528 A/G, Count Allele G, Liver Function Abnormality Present): 112 (43.1%) | n (%) of patients (UGT1A6_528 A/G, Genotype Heterozygous A/G, Liver Function Abnormality Absent): 114 (43.0%) | n (%) of patients (UGT1A6_528 A/G, Genotype Heterozygous A/G, Liver Function Abnormality Present): 60 (46.2%) | n (%) of patients (UGT1A6_528 A/G, Genotype Homozygous A/A, Liver Function Abnormality Absent): 129 (48.7%) | n (%) of patients (UGT1A6_528 A/G, Genotype Homozygous A/A, Liver Function Abnormality Present): 44 (33.8%) | n (%) of patients (UGT1A6_528 A/G, Genotype Homozygous G/G, Liver Function Abnormality Absent): 22 (8.3%) | n (%) of patients (UGT1A6_528 A/G, Genotype Homozygous G/G, Liver Function Abnormality Present): 26 (20.0%) | n (%) of patients (UGT1A6_754 Thr181Ala, Allele Ala Absent, Liver Function Abnormality Absent): 144 (52.6%) | n (%) of patients (UGT1A6_754 Thr181Ala, Allele Ala Absent, Liver Function Abnormality Present): 51 (37.8%) | n (%) of patients (UGT1A6_754 Thr181Ala, Allele Ala Present, Liver Function Abnormality Absent): 130 (47.4%) | n (%) of patients (UGT1A6_754 Thr181Ala, Allele Ala Present, Liver Function Abnormality Present): 84 (62.2%) | n (%) of patients (UGT1A6_754 Thr181Ala, Allele Thr Absent, Liver Function Abnormality Absent): 22 (8.0%) | n (%) of patients (UGT1A6_754 Thr181Ala, Allele Thr Absent, Liver Function Abnormality Present): 25 (18.5%) | n (%) of patients (UGT1A6_754 Thr181Ala, Allele Thr Present, Liver Function Abnormality Absent): 252 (92.0%) | n (%) of patients (UGT1A6_754 Thr181Ala, Allele Thr Present, Liver Function Abnormality Present): 110 (81.5%) | n (%) of allele copies (UGT1A6_754 Thr181Ala, Count Allele Ala, Liver Function Abnormality Absent): 152 (27.7%)
Structure (SMILES): Cc1ccc(C(=O)c2cc(O)c(O)c([N+](=O)[O-])c2)cc1 [tolcapone]
